Test systems include LOX IMVI; SK-MEL-5; SK-MEL-2; UACC-257; RPMI-8226; MDA-N; MDA-MB-435; SK-MEL-28; Hs-578T; SF-539; OVCAR-4; EKVX; OVCAR-3; 786-0; MOLT-4; KM12; HCT-116; BT-549; A498; SN12C.
Experiment in all cases: growth of human tumour cells (NCI), 48 h

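Cultured in 96-well plates, cells were exposed to test compound for 48 hours across five concentrations. Here, GI50 denotes the concentration required for 50% inhibition of growth.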 Active and inactive are the calls of the source. Rule as the data show it: active = GI50 up to about 1.1 µM and inactive = higher.

As for `CCCCCCCCCCCC[C@@H](O)[C@H]1CC[C@H]([C@H](O)CCCC[C@H](O)CCCCC[C@@H](O)CC2=C[C@H](C)OC2=O)O1`, the GI50 in the assay with LOX IMVI is 1.19 µM (inactive); in the assay with SK-MEL-5, 0.0143 µM (active); with SK-MEL-2, 0.867 µM (active); in the assay on UACC-257, 0.0168 µM (active); in the assay with RPMI-8226 it was 0.362 µM (active); in the assay with MDA-N, 2.08 µM (inactive). Moreover, the GI50 was 1.98 µM (inactive) in the assay with MDA-MB-435; 2.8 µM (inactive) with SK-MEL-28; 3.17 µM (inactive) in the assay with Hs-578T; 2.97 µM (inactive) in the assay on SF-539; 0.931 µM (active) in the assay on OVCAR-4; 0.562 µM (active) in the assay with EKVX. In addition, the GI50 with OVCAR-3 was 0.569 µM (active); with 786-0, 2.82 µM (inactive); in the assay with MOLT-4 it was 0.363 µM (active); in the assay with KM12, 3.35 µM (inactive); in the assay on HCT-116, 0.135 µM (active); in the assay with BT-549 it was 10 µM (inactive). Further, the GI50 with A498 was 3.55 µM (inactive); in the assay with SN12C, 3.78 µM (inactive).

`CCOC(=O)/C=C(/C(=O)OCC)n1cc(C)c(=O)n(Cc2cn(COCCOC(C)=O)nn2)c1=O`: the GI50 with LOX IMVI was 22.2 µM (inactive); with SK-MEL-5, 24.9 µM (inactive); in the assay on SK-MEL-2 it was 45.8 µM (inactive); in the assay with UACC-257, 20.7 µM (inactive); with RPMI-8226 it was 17.9 µM (inactive); in the assay with MDA-N, 38.3 µM (inactive). Moreover, the GI50 with MDA-MB-435 is 18.3 µM (inactive); in the assay with SK-MEL-28 it was 19.8 µM (inactive); in the assay with Hs-578T, 26.3 µM (inactive); in the assay with SF-539, 15.9 µM (inactive); with OVCAR-4, 20 µM (inactive); with EKVX, 16.7 µM (inactive). In addition, the GI50 in the assay with OVCAR-3 was 24.7 µM (inactive); in the assay with 786-0 it was 20 µM (inactive); in the assay on MOLT-4, 15 µM (inactive); in the assay on KM12, 23.1 µM (inactive); with HCT-116, 20.7 µM (inactive); with BT-549, 19.9 µM (inactive). Further, the GI50 with A498 is 50.5 µM (inactive); in the assay with SN12C, 25.8 µM (inactive).

In the case of `COC(=O)c1nc2c3c(cccc3c1C(=O)OC)Nc1ccccc1-2`, the GI50 in the assay on LOX IMVI is 32.3 µM (inactive); in the assay with SK-MEL-5, 15.4 µM (inactive); with SK-MEL-2 it was 28.1 µM (inactive); with UACC-257, 61.4 µM (inactive); in the assay on RPMI-8226, 53 µM (inactive); in the assay with MDA-N it was 46.2 µM (inactive). Also, the GI50 in the assay on MDA-MB-435 was 83.6 µM (inactive); in the assay with SK-MEL-28, 59.7 µM (inactive); with Hs-578T, 26.7 µM (inactive); in the assay on SF-539, 52.7 µM (inactive); with OVCAR-4 it was 35.9 µM (inactive); in the assay on EKVX, 65.8 µM (inactive). The GI50 with OVCAR-3 was 36.6 µM (inactive); in the assay with 786-0, 27.5 µM (inactive); in the assay on MOLT-4, 43.8 µM (inactive); in the assay on KM12 it was 28.2 µM (inactive); in the assay with HCT-116, 25.2 µM (inactive); with BT-549, 43.2 µM (inactive). For the same compound, the GI50 with A498 was 36.6 µM (inactive); in the assay with SN12C it was 33.4 µM (inactive).

Regarding `CCCNC(=O)c1cc(OC)c(OC)cc1NC(=O)C12CC3CC(CC(C3)C1)C2`, the GI50 with LOX IMVI is 19.5 µM (inactive); in the assay on SK-MEL-5 it was 40 µM (inactive); with SK-MEL-2, 15.5 µM (inactive); in the assay with UACC-257, 17.6 µM (inactive); with RPMI-8226, 32.4 µM (inactive); in the assay on MDA-N, 16.7 µM (inactive). Moreover, the GI50 was 17.9 µM (inactive) with MDA-MB-435; 16.1 µM (inactive) with SK-MEL-28; 19.8 µM (inactive) in the assay on Hs-578T; 22.2 µM (inactive) in the assay on SF-539; 17.6 µM (inactive) in the assay with OVCAR-4; 18.2 µM (inactive) in the assay with EKVX. Further, the GI50 was 19 µM (inactive) in the assay with OVCAR-3; 17 µM (inactive) with 786-0; 29.9 µM (inactive) in the assay with MOLT-4; 17.6 µM (inactive) in the assay on KM12; 16.8 µM (inactive) with HCT-116; 16.7 µM (inactive) with BT-549. Moreover, the GI50 with A498 was 15.1 µM (inactive); in the assay on SN12C, 16.1 µM (inactive).

As for `Cn1c(=O)c2c(ncn2CN2CCN(Cn3cnc4c3c(=O)n(C)c(=O)n4C)CC2)n(C)c1=O`, the GI50 in the assay on LOX IMVI is 24.2 µM (inactive); in the assay with SK-MEL-5 it was > 100 µM (inactive); in the assay on SK-MEL-2 it was > 100 µM (inactive); with UACC-257, 47.1 µM (inactive); with RPMI-8226, 22.7 µM (inactive); in the assay on MDA-N, 50.2 µM (inactive). The GI50 in the assay with MDA-MB-435 was 86.5 µM (inactive); with SK-MEL-28, 48.1 µM (inactive); in the assay with Hs-578T, > 100 µM (inactive); in the assay with SF-539 it was 56.2 µM (inactive); in the assay with OVCAR-4, > 100 µM (inactive); with EKVX, 29.1 µM (inactive). The GI50 is > 100 µM (inactive) in the assay with OVCAR-3; 29 µM (inactive) in the assay on 786-0; 17 µM (inactive) with MOLT-4; 92.5 µM (inactive) in the assay with KM12; 16.9 µM (inactive) in the assay with HCT-116; 62.2 µM (inactive) in the assay with BT-549. Further, the GI50 in the assay on A498 is > 100 µM (inactive); in the assay on SN12C, 46.9 µM (inactive).

For `Clc1ccc2c(NCCCCN3OC3c3ccccc3)ccnc2c1` (stereo not given), the GI50 in the assay with LOX IMVI was 2.13 µM (inactive); with SK-MEL-5, 4.79 µM (inactive); in the assay with SK-MEL-2 it was 4.79 µM (inactive); with UACC-257, 18.1 µM (inactive); in the assay with RPMI-8226 it was 2.92 µM (inactive); in the assay with MDA-N, 5.42 µM (inactive). For the same compound, the GI50 with MDA-MB-435 was 4.47 µM (inactive); in the assay on SK-MEL-28 it was 3.64 µM (inactive); in the assay on Hs-578T, 14.6 µM (inactive); in the assay with SF-539, 1.98 µM (inactive); with OVCAR-4, 4.27 µM (inactive); with EKVX it was 21.8 µM (inactive). The GI50 with OVCAR-3 was 4.45 µM (inactive); in the assay on 786-0 it was 2.47 µM (inactive); in the assay on MOLT-4 it was 2.15 µM (inactive); in the assay with KM12, 7.5 µM (inactive); with HCT-116 it was 2.06 µM (inactive); in the assay on BT-549, 13.4 µM (inactive). Besides, the GI50 is 8.36 µM (inactive) in the assay on A498 and 11.1 µM (inactive) in the assay on SN12C.

`COc1ccc(/N=N\c2c(N)nn3c(SC)c(C#N)c(N)nc23)cc1`: the GI50 in the assay with LOX IMVI is 1.74 µM (inactive); with SK-MEL-5, 16.1 µM (inactive); with SK-MEL-2, 2.76 µM (inactive); in the assay with UACC-257, 5.11 µM (inactive); in the assay on RPMI-8226, 2.92 µM (inactive); in the assay with MDA-N, 13.6 µM (inactive). For the same compound, the GI50 is 13.3 µM (inactive) with MDA-MB-435; 6.5 µM (inactive) with SK-MEL-28; 2.52 µM (inactive) with Hs-578T; 19 µM (inactive) in the assay with SF-539; 15.1 µM (inactive) with OVCAR-4; 3.93 µM (inactive) with EKVX. Also, the GI50 with OVCAR-3 is 2.82 µM (inactive); in the assay with 786-0, 3.67 µM (inactive); in the assay with MOLT-4, 2.61 µM (inactive); in the assay on KM12, 15.1 µM (inactive); with HCT-116, 7.74 µM (inactive); in the assay on BT-549 it was 14.9 µM (inactive). Also, the GI50 is 11.1 µM (inactive) with A498 and 5.27 µM (inactive) in the assay on SN12C.

Take `C/C(Cl)=N\OC(=O)Nc1ccc([N+](=O)[O-])cc1`: the GI50 in the assay on LOX IMVI is 5.36 µM (inactive); in the assay on SK-MEL-5, 17.4 µM (inactive); in the assay on SK-MEL-2, 17.5 µM (inactive); with UACC-257, 16.8 µM (inactive); with RPMI-8226, 2.36 µM (inactive); with MDA-N, 10.8 µM (inactive). Besides, the GI50 is 18.8 µM (inactive) in the assay with MDA-MB-435; 17.2 µM (inactive) with SK-MEL-28; 25 µM (inactive) in the assay with Hs-578T; 16.3 µM (inactive) in the assay on SF-539; 13.7 µM (inactive) with OVCAR-4; 19.3 µM (inactive) in the assay on EKVX. Besides, the GI50 was 2.12 µM (inactive) in the assay on OVCAR-3; 5.92 µM (inactive) with 786-0; 1.92 µM (inactive) with MOLT-4; 15.5 µM (inactive) in the assay on KM12; 7.94 µM (inactive) in the assay on HCT-116; 23 µM (inactive) in the assay with BT-549. The GI50 in the assay with A498 was 15.3 µM (inactive); in the assay with SN12C, 12.4 µM (inactive).

The values above are taken from ChEMBL document CHEMBL1201862, “PubChem BioAssay data set” (2004).
